Columns and labels:
bovine rhodopsin = target: T1, bovine rhodopsin (Bos taurus, UniProt P02699); test: rhodopsin Meta II decay assay (Trp265 intrinsic fluorescence); settings: 100 μM compound
T1 construct: The washed ROS with isotonic and hypotonic buffers was used as described above; from tissue; host or cells: bovine rod outer segments (ROS)
Description: However, oligomerization of isorhodopsin could affect the chromophore release from opsin. The chromophore release can be measured sensitively by the light-induced increase in intrinsic fluorescence of the Trp^265 residue that occurs upon release of the chromophore after illumination ([43]).
The washed ROS with isotonic and hypotonic buffers was used as described above. The solubilized rhodopsin at 1.05 mg/ml in 20 mM 1,3-bis(tris(hydroxymethyl)methylamino) propane, pH 6.9, 100 mM NaCl, and 1 mM LMNG buffer was incubated for 5 min at 20 °C with 0.7 μl of 100 mM stock solutions of the nine identified hit compounds (100 μM final concentration) in DMSO and centrifuged at 1000g for an additional 5 min. Next, photobleaching was carried out with a 150-W fiber light delivered through a 480 to 520 nm band pass filter (Chroma Technology) for 10 s. Samples were subjected to fluorescence measurements acquired through 150 s in triplicate. The results were analyzed with an L55 luminescence spectrophotometer (PerkinElmer) operating at excitation and emission wavelengths of 300 nm and 335 nm, respectively.

[1] = tested on: individual rod photoreceptors; test: single-cell suction electrode recording from rod outer segments; type: cell-based, mouse (C57BL/6J); settings: suction electrode, 250 μM compound
Description: Because it is possible that reduction of Rmax by compound #1 is due to some effect(s) on the rod photoreceptor inner segment currents that are not directly related to phototransduction ([51], [52]), we conducted also single-cell suction electrode recordings from the ROS from samples that were incubated either in the control medium or in the medium containing enhancer compound #1. The results from single cell recordings were similar to those obtained using ex vivo ERG: Rmax and fractional sensitivity were decreased from 12 (±0.4) to 9 (±0.3) pA and from 3.0 (±0.5) to 1.8 (±0.1)% per photon μm^−2, respectively, by rhodopsin dimerization–enhancing hit #1 (Fig. 6, A–C). Like the ex vivo ERG recordings, light response kinetics was not affected by compound #1 in the single-cell recordings (Fig. 6D).
Suction electrode recordings from individual rod photoreceptors of dark-adapted C57BL/6J mice were conducted as described previously ([65]). Before recordings, isolated retinas were incubated in the control medium (Ames’ medium + 0.1% DMSO) or in the hit compound–containing medium (Ames’ medium +250 μM F2502-0030 (#1)) as described above for ex vivo ERG experiments. After incubation, one half of the retina was chopped with a razor blade and transferred into a chamber where it was perfused at 1 ml/min with Ames’ medium saturated with 95% O2/5% CO2 at 35 °C. Recordings were made from a single ROS, using borosilicate glass electrodes with ∼1.5-μm opening (resistance ∼2 MΩ at 35 °C). The pipette solution was Hepes buffered Ames’ medium composed of 0.88 g Ames’ powder (A1420, Sigma-Aldrich), 0.357 g Hepes (Sigma-Aldrich), and 58.44 mg NaCl in […] distilled and vacuum-filtered water. The pH was adjusted to 7.4 with NaOH. Light responses were recorded to flashes of light ranging from 8 to 700 photons μm^−2 at 500 nm. For analysis, data were low-pass filtered using an 8-pole Bessel filter with cut-off frequency at 30 Hz.

[2] = target: rhodopsin (isorhodopsin) dimerization (Homo sapiens, UniProt P08100); test: rhodopsin dimerization BRET assay in HEK293 opsin-Rluc/opsin-Venus cells; type: cell-based; design: expressed in transfected cells; host or cells: HEK293 (human embryonic kidney 293) opsin-Rluc / opsin-Venus cell lines; settings: HEK293 opsin-Rluc/opsin-Venus cells regenerated with 9-cis-retinal; triplicates; read from Fig. 3B,E
Excerpt: To identify small molecules that target rhodopsin dimerization, a cell-based high-throughput screening (HTS) assay was used to screen a diverse library of 50,000 compounds from Life Chemicals. The human osteosarcoma (U2OS) stable cell line was used, which expresses opsin fused with complimentary subunits of β-galactosidase (β-gal), namely, the enzyme acceptor large β-gal subunit (EA) and the enzyme donor, small subunit of β-gal (PK). Upon rhodopsin self-association in vitro, a competent β-gal was formed and chemiluminescent signal was generated in the presence of β-gal substrate (Fig. 1A). For further validation, the β-gal activity assay was used to counter-screen and rule out false positives, affecting the activity of β-gal without affecting rhodopsin (Fig. 1B) ([34]). In an orthogonal assay, rhodopsin dimerization was assessed using a bioluminescence resonance energy transfer (BRET) assay with human embryonic kidney 293 cells expressing opsin fused with Renilla luciferase and opsin fused with Venus (Fig. 1C) ([35], [36]). To form functional visual pigment, opsin-fused proteins were regenerated with 9-cis-retinal to form so-called isorhodopsin ([37]). We chose 9-cis-retinal over photoreceptor-endogenous 11-cis-retinal because of its availability and the prohibitive cost for HTS assays with the native chromophore. Rhodopsin and isorhodopsin have similar biochemical and spectral properties (see ([38])).
Identified hits from the β-gal complementation assay were subjected to the previously developed BRET assay, using human embryonic kidney 293 opsin–Renilla luciferase and opsin-Venus cell lines ([37]). Cultured cells were diluted to 2 × 10^5 cells/ml in the medium containing 10% fetal bovine serum (Thermo Fisher Scientific) and 1% penicillin-streptomycin (10,000 U/ml; Thermo Fisher Scientific), and 20 μl/well of the cell diluent was dispensed into a white ViewPlate-384 (PerkinElmer). Cells were cultured overnight at 37 °C in 5% CO2, and under a dim red light, cells were treated with 9-cis-retinal at 7.5 μM final concentration. The next day, cells were treated with the identified hit compounds from the β-gal complementation assay at 180 μM down to 2.4 nM concentrations, and 1 μM final concentration of TM5 peptide ([…]-NH2; EZBiolab) serving as the control. On the following day, the culture medium was aspirated and replaced with 90 μl/well of PBS containing pivaloyloxymethyl acetoxycoelenterazine h (Dalton Research Molecules) at 600 μM concentration followed by incubation at 20 °C for 40 min ([35]). Dual luminescence readings at 480 and 530 nm were performed using a SpectraMax L plate reader with the BRET1 filter set (Molecular Devices).

T1 sequence (P02699 whole entry): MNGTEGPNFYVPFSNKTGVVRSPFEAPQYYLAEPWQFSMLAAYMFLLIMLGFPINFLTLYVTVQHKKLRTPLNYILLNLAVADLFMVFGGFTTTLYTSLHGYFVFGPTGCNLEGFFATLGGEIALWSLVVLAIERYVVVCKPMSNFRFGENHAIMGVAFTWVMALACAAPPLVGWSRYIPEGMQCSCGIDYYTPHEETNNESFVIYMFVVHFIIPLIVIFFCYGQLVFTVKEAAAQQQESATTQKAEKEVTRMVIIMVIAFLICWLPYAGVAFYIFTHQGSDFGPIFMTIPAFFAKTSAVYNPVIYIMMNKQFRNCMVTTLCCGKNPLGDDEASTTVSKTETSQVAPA
Chain of rhodopsin (isorhodopsin) dimerization (P08100 whole entry, the tested form may be a part): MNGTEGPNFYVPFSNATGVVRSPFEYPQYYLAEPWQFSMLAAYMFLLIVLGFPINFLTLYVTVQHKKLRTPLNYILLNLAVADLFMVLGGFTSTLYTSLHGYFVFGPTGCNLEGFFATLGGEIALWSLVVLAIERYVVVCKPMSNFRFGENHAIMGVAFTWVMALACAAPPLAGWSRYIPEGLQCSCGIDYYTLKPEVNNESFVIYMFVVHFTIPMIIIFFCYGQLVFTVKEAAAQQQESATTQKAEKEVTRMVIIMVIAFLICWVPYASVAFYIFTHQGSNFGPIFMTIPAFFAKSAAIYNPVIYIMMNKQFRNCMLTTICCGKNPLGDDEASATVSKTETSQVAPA

O=C(CSc1nnc(NC(=O)Cc2ccc(F)cc2)s1)NO [#1]
light-induced increase in Trp265 intrinsic fluorescence vs DMSO-treated isorhodopsin (bovine rhodopsin): significantly quenched
Meta II decay rate (slope of intrinsic fluorescence over 150 s) relative to DMSO control (bovine rhodopsin; bleached rhodopsin, p < 0.0001): statistically significant signal reduction
light response kinetics (single-cell) [1]: not affected
fractional sensitivity (single-cell) ([1]; control 3.0 (±0.5)): 1.8 (±0.1) % per photon μm^−2
Rmax (single-cell) ([1]; control 12 (±0.4)): 9 (±0.3) pA
EC50 [2]: 2.34 µM

— publication PMC8665362, “Identification of small-molecule allosteric modulators that act as enhancers/disrupters of rhodopsin oligomerization” (The Journal of Biological Chemistry, 2021)
